# Data from PubChem BioAssay AID1197 (NMMLSC, 2008).
# Active and inactive are the calls of the source. The rule behind the calls is not given here.
# Key:
# [1] = test system: LNCaP cell loss, flow cytometry event count, 4 d; assay: LNCaP cell killing by flow cytometry event count, dose response, cytotoxicity control for prostate cell differentiation activator project (AID 1197)
# [2] = as above; details: LNCaP cell loss, flow cytometry event count, 4 d; at 30 µM (top of the series)
SMILES,EC50 [1],event count (lower = more killing) [2]
CCc1ccc(-c2nc(CN3CCC(C(=O)NCc4ccc(F)cc4)CC3)c(C)o2)cc1,5.17 µM,–
CCCN(CCC)CCNC(=O)C1CCN(Cc2nc(-c3ccc(Cl)cc3)oc2C)CC1,15.7 µM (inactive),–
COc1ccc(-c2cc(C(F)(F)F)nc(N3CCN(Cc4ccccc4)CC3)n2)cc1OC,0.549 µM,–
COc1ccccc1N1CCN(Cc2cc(Br)c(O)c3ncccc23)CC1,0.351 µM,–
COc1ccccc1N1CCN(c2nc3ccccc3nc2C(C#N)C(=O)OC(C)C)CC1 (stereo not drawn),2.77 µM,–
COc1ccc(-c2noc(-c3cc(Cl)ccc3Cl)n2)cc1OC,4.83 µM,–
CCN1CCCC1CNC(=O)C1CCN(Cc2nc(-c3cccc(Br)c3)oc2C)CC1 (stereo not drawn),6.68 µM,–
Cc1oc(-c2ccc(Cl)cc2)nc1CN1CCC(C(=O)NCCCN2CCOCC2)CC1,6.27 µM,–
COc1ccc2cc3cc(C(=O)Nc4ccccc4N4CCN(C)CC4)oc3nc2c1,19.3 µM (inactive),–
CCOC(=O)c1[nH]c(C)c(C(=O)N2CCc3ccccc32)c1C,0.888 µM,–
COc1ccc(-c2noc(CCC(=O)NCCCN3CCC(Cc4ccccc4)CC3)n2)cc1,15.6 µM (inactive),–
CCN(CCNC(=O)C1CCN(Cc2nc(-c3ccc(Cl)cc3)oc2C)CC1)c1ccccc1,8.33 µM,–
Cc1ccccc1CS(=O)(=O)CCC(=O)NCCCN1CCN(c2ccccc2F)CC1,6.85 µM,–
COc1ccc(Nc2nc(N)nc(CN3CCC(Cc4ccccc4)CC3)n2)cc1,17 µM (inactive),–
CCOC(=O)c1c(C)[nH]c(C(=O)COC(=O)C2CC2C)c1C (stereo not drawn),0.166 µM,–
Cn1nc(-c2ccc(Cl)cc2)c2cc(C(=O)NCCCN3CCOCC3)sc21,14.5 µM (inactive),–
CN1CCN(CCCNC(=O)c2cc3c(-c4ccc(Cl)cc4)nn(C)c3s2)CC1,12.6 µM (inactive),–

SMILES,EC50 [1],event count (lower = more killing) [2]
N=c1n(CCN2CCCCC2)c2ccccc2n1CC(O)COc1ccccc1 (stereo not drawn),19.2 µM (inactive),–
COc1ccc(CCN2CCC(Nc3nc4ccccc4n3Cc3ccc(F)cc3)CC2)cc1,3.74 µM,–
CC(C)N1CCC2(CC1)N=C(c1ccc3c(c1)OCO3)CC(c1cc(Cl)ccc1O)N2 (stereo not drawn),1.94 µM,–
Cn1nc(-c2ccc(Cl)cc2)c2cc(C(=O)NCCCN3CCCC3)sc21,13 µM (inactive),–
Cc1noc(/C=C/c2ccco2)c1S(=O)(=O)N1CCC(C(=O)N2CCc3ccccc3C2)CC1,4.53 µM,–
Cn1c(=O)cc(OCC(=O)NCCCN2CCN(c3ccccc3F)CC2)c2ccccc21,0.101 µM,–
COc1ccc(-c2oc3ncn(CCN4CCOCC4)c(=N)c3c2-c2ccc(OC)cc2)cc1,0.198 µM,–
Cc1cc2c(=O)n(CC(=O)N3CCN(c4ccccc4)CC3)cnc2s1,1.61 µM,–
Cc1ccc(OCC(O)Cn2c(=N)n(CCN3CCCCC3)c3ccccc32)cc1 (stereo not drawn),8.65 µM,–
CCN(CCNC(=O)C1CCN(Cc2nc(-c3cccc(Cl)c3)oc2C)CC1)c1ccccc1,3.07 µM,–
CCOc1ccc(-c2cc(C(=O)NCCCN3CCN(CC)CC3)c3ccccc3n2)cc1,21.7 µM (inactive),–
CCN1CCCC1CNC(=O)c1cc2c(-c3ccc(Cl)cc3)nn(C)c2s1 (stereo not drawn),–,27.8% (inactive)
CCN1CCN(C(c2cccs2)C(C)NS(=O)(=O)c2ccc(Br)cc2)CC1 (stereo not drawn),–,282% (inactive)
O=S1(=O)C=C(Sc2nc3ccccc3s2)c2ccccc21,–,150% (inactive)
CCn1c(=O)cc(SCC(=O)NCCCN2CCN(c3ccccc3F)CC2)c2ccccc21,–,210% (inactive)
Cc1ccc(Cl)cc1N1CCN(C(=O)c2cc3c(=O)n(C)c4ccccc4c3n2C)CC1,–,26.8% (inactive)
